Entries after “also recorded” stand apart in the source; their conditions may differ. Read-outs that look alike come from different tables or passages of the source. Blank lines part the entries; values can stand above or below the molecule they belong to. Bridge positions count the residues as written; N and C are the ends. Square brackets hold non-standard residues; d marks the D form. Peptide text beside a SMILES is read from it. Orn = NCCC[C@H](N)C(=O)O; Mpa = O=C(O)CCS
Assays:
[1] = Part A: three-period crossover, single doses of compound (2) and MgSO4 alone and co-administered; conditions: for pharmacokinetic interaction between compound (2) and MgSO4: in vivo
Method: Both studies enrolled 12 healthy, non-pregnant women of reproductive age. […] During the MgSO4 study, women stayed in the clinic from Day −1 to Day 4 of each period. Safety and pharmacokinetics were assessed in accordance with European and United States clinical drug-interaction guidelines. Additional electrocardiogram and neurological examinations were performed assessing safety following MgSO4 administration.
One cohort of 12 subjects was admitted to the study unit on day −1, period 1. […] On day 1, subjects were crossed over and received the alternate treatment to that in period 1. Subjects were discharged on day 3, and after washout returned on day −1, period 3. […] Outpatient visits occurred on days 4 and 5 followed by a final visit 7 days (±1 day) later. Venous blood samples used in pharmacokinetic analyses were taken pre-dose then 0.25, 0.5, 0.75, 1, 1.5, 2, 3, 4, 6, 8, 12, 16 and 20 hours post dose on day 1 of each treatment period. Single samples for pharmacokinetic analysis were also drawn on days 2, 3, 4 and 5 of each treatment period.
(§1) Plasma samples used to determine drug concentration were analyzed by SGS (SGS CEPHAC, France) using a validated methods. Non-compartmental analysis was used to estimate pharmacokinetic parameters and pharmacokinetic modeling was used to access time-dependent pharmacokinetics. […] Other pharmacokinetic parameters were calculated according to standard equations.
Pharmacokinetic interaction assessments were performed on logarithmically transformed AUC0-24, AUC0-∞ and Cmax values using ANOVA models with fixed effects for sequence (Part A only), period, and treatment and a random term for subject within sequence.
(§2) Differences in tmax were explored by computing the Hodges-Lehmann estimate and the corresponding 90% CI according to Tukey using the approximate method. The Wilcoxon signed rank test was used to test differences in tmax. Unrecorded values were treated as missing.

[2] = Part B: single-sequence crossover, compound (2) at steady state co-administered with atosiban, nifedipine or betamethasone; conditions: for Tmax: female, human, in vivo, iv, 60.75 mg, time of peak plasma concentration
Method: (§3) Both studies enrolled 12 healthy, non-pregnant women of reproductive age. […] Safety and pharmacokinetics were assessed in accordance with European and United States clinical drug-interaction guidelines.
(§4) Once at steady state, compound (2) was sequentially co-administered with each of the other tocolytic drugs. Subjects were admitted to the study unit on day −1. On day 1, each subject received a single intravenous treatment course of atosiban. […] From days 4 to 9, oral doses of compound (2) (1,000 mg) were administered until reaching steady state. […] Two additional samples were taken at 24 and 48 hours post dose to determine betamethasone concentration, due to the longer half-life of this drug. Pharmacokinetic sampling also occurred before compound (2) administration on days 4, 5, 6, 7, 8 and 9, with an additional 0.25 hour post-dose sample taken on day 9 to determine concentration of compound (2) and its metabolite, compound (1). […] Pharmacokinetic samples were obtained at the times stated above on days 10, 11 and 12, and additional betamethasone samples were obtained 24 and 48 hours post-dose. Subjects were discharged on day 14 and returned for a follow-up visit on day 21.
as §1
(§5) Pharmacokinetic interaction assessments were performed on logarithmically transformed AUC0-24, AUC0-∞ and Cmax values using ANOVA models with fixed effects for sequence (Part A only), period, and treatment and a random term for subject within sequence. The 90% confidence intervals (90% CI) for the geometric mean ratio of AUC0-24, AUC0-∞ and Cmax were constructed, comparing treatments administered alone versus combination treatments.
as §2

[3] = in vivo
Method: as §3, §4, §1, §5, §2

clinical = conditions: female, human, in vivo
Method: as §3, §4, §1, §5, §2

[4] = target: T1, Pept1 transporter protein (Homo sapiens, UniProt P46059); test: Pept1 transporter dependence of intestinal absorption; format: in vitro ADME
T1 sequence (P46059 1-708): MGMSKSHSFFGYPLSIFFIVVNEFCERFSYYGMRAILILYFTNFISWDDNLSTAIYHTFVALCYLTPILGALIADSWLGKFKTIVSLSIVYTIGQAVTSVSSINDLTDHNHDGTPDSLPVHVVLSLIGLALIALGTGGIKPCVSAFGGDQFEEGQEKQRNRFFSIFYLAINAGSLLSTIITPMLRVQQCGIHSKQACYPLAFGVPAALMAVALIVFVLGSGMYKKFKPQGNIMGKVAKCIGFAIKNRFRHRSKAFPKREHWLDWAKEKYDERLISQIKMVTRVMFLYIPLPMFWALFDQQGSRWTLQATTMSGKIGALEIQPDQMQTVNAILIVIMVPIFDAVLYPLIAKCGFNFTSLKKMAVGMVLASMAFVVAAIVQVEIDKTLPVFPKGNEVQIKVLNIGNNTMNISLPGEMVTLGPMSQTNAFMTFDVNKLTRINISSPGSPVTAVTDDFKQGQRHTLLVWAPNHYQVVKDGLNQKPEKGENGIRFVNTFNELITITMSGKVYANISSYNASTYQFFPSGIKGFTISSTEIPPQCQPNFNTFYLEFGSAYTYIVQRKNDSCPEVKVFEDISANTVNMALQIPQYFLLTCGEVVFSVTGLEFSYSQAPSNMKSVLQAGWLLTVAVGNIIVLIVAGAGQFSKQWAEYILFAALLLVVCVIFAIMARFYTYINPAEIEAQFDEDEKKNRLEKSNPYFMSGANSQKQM
Text: Compound 2 is de-esterified by ambient esterases in the small intestine and subsequently penetrates the small intestinal epithelium passively. […] Pept1 is known to mediate the absorption of a variety of valinate esters, as described, for example, in Vig et al., Adv. Drug Deliv. Rev. […] Dispos. 41:608-614 (2013). […] Rather, compound 2 and salts thereof are converted in vivo to a form that is readily absorbed in a manner independent of energy and local proton gradient. This beneficial property, coupled with the high aqueous solubility of compound I and salts thereof, fosters a pharmacokinetic profile in which compound 2 and salts thereof readily dissolve in an aqueous environment and are in turn converted into a form capable of transported-independent absorption.

[5] = clinical drug-interaction study in healthy women, Parts A and B together (pharmacokinetics, safety, tolerability); format: in vivo, human; conditions: plasma, oral compound (2)
Method: Healthy women aged between 18 and 45 years with a body mass index of 18.0 to 30.0 kg/m^2 were included in these investigations. Subjects were screened 55 days before the first drug administration and had to be healthy according to medical history, physical examinations, blood pressure tests, electrocardiogram results and laboratory assessment of blood and urine.
This study was performed at Croydon University Hospital, Croydon, UK. The study protocol (EudraCT: 2016-001958-18) was reviewed and approved by a National Health Service (NHS) Research Ethics Committee (South Central-Berkshire B, UK) and the Medicines and Healthcare products Regulatory Authority (MHRA). The study was conducted according to the ethical principles enshrined in UK law, the Declaration of Helsinki and Good Clinical Practice guidelines. All subjects were informed of the purpose of the study and signed voluntary consent forms before being enrolled.
Other pharmacokinetic parameters were calculated according to standard equations.

[6] = relative to compound 1; cited from earlier work
[7] = crystal form stability and hygroscopicity; format: physicochemical
Text: For example, this compound is readily crystallized using a several distinct experimental procedures. Compound 3 assumes a single, reproducible crystal form upon crystallization from a variety of media and under different ambient conditions. […] For instance, impurities associated with atmospheric water are not readily integrated into the crystalline form of compound 3.

[8] = co-administration with MgSO4 vs compound (2) alone
[9] = compound (2) with MgSO4 vs alone

Compound: O=S(=O)([O-])[O-].[Mg+2] [MgSO4, magnesium sulfate, reference compound]
AUCs of total Mg ([1]; after co-administration of compound (2) and MgSO4 vs MgSO4 alone): slightly lower | pharmacokinetic interaction between compound (2) and MgSO4 [1]: no relevant mutual pharmacokinetic interactions | effect of compound (2) on timing or extent of total Mg exposure ([1]; interaction analysis): no effects

Compound: CCOc1ccc(C[C@H]2NC(=O)CCSSC[C@@H](C(=O)N3CCC[C@H]3C(=O)N[C@@H](CCCN)C(=O)NCC(N)=O)NC(=O)[C@H](CC(N)=O)NC(=O)[C@H]([C@@H](C)O)NC(=O)[C@H]([C@@H](C)CC)NC2=O)cc1 [atosiban] ([Mpa][dY](Et)ITNCP[Orn]G-NH2; disulfide 1-6)
Cmax and AUCs, co-administration with compound (2) vs drug alone ([2]; descriptive): slightly higher | Tmax ([2]; co-administered with compound (2), compound (2) 1,000 mg per day at steady state): 0.25 h | Tmax ([2]; drug administered alone): 1.5 h | tmax, with compound (2) vs drug alone ([2]; paired analysis): no significant tmax difference

Cmax and AUCs, co-administration with compound (2) vs drug alone [3]: Slightly increased | rise of plasma concentrations [3]: increased more rapidly | tmax, with compound (2) vs drug alone [3]: significantly shorter
Compound: C[C@H]1C[C@H]2[C@@H]3CCC4=CC(=O)C=C[C@]4(C)[C@@]3(F)[C@@H](O)C[C@]2(C)[C@@]1(O)C(=O)CO [betamethasone, reference compound]

compound (1) AUC0-24 [1, 8]: small decrease | compound (1) AUC0-t or AUC0-∞ [1, 8]: unchanged | compound (1) tmax [1, 9]: slightly later; also recorded: no effect | interaction estimates (linear mixed model) [1, 9]: ~1 | compound (1) Cmax ([1]; during MgSO4 infusion vs compound (2) alone): lower | pharmacokinetic interaction between compound (2) and MgSO4 [1]: no interaction of clinical significance | compound (1) mean t1/2 and MRT ([1]; with vs without MgSO4 infusion): nearly identical | Tmax (clinical): 3 h | change in compound (1) AUC0-24 ([3]; female, human): 15-24% | change in compound (1) AUC (AUC0-24) ([3]; female, human): −21% | increase in compound (1) AUC ([3]; female, human): 15% | increase in compound (1) Cmax ([3]; female, human): 35% | increase in compound (1) MRT and t1/2 ([3]; female, human): 1.7-2 fold | PE, compound (1) AUC ([3]; human): 0.786 | PE, compound (1) Cmax ([3]; human): 0.719 | changes in compound (1) tmax ([3]; human): not significant | compound (1) CL/F ([3]; human): decrease | compound (1) tmax ([3]; human): increase
Compound: O=C(N[C@@H](CCO)c1ccc(F)cc1)[C@@H]1SCCN1S(=O)(=O)c1ccc(-c2ccccc2)cc1 [compound (1), 3-([1,1′-biphenyl]-4-ylsulfonyl)-N-[1-(4-fluorophenyl)-3-hydroxypropyl]-1,3-thiazolidine-2-carboxamide]

substrate for the Pept1 transporter protein [4]: not substrates
Compound: CC(C)[C@H](N)C(=O)OCC[C@H](NC(=O)[C@@H]1SCCN1S(=O)(=O)c1ccc(-c2ccccc2)cc1)c1ccc(F)cc1 [compound (2), (3S)-3-({[(2S)-3-(biphenyl-4-ylsulfonyl)-1,3-thiazolidin-2-yl]carbonyl}-amino)-3-(4-fluorophenyl)propyl L-valinate]
mean AUC0-∞ of compound (2), times lower than that of compound (1) [5]: 771-1163 times | mean peak concentration of compound (2), times lower than that of compound (1) [5]: 133-246 times | pharmacokinetic interaction between compound (2) and MgSO4 [1]: no relevant mutual pharmacokinetic interactions | solubility in water and in FeSSIF and FaSSIF media [6]: improvements

hygroscopicity [7]: low | stability of the crystal form ([7]; ambient conditions and elevated relative humidity): extended stability
Compound: CC(C)[C@H](N)C(=O)OCC[C@H](NC(=O)[C@@H]1SCCN1S(=O)(=O)c1ccc(-c2ccccc2)cc1)c1ccc(F)cc1.Cl [compound (3), (3S)-3-({[(2S)-3-(biphenyl-4-ylsulfonyl)-1,3-thiazolidin-2-yl]carbonyl}-amino)-3-(4-fluorophenyl)propyl L-valinate hydrochloride]

Compound: COC(=O)C1=C(C)NC(C)=C(C(=O)OC)C1c1ccccc1[N+](=O)[O-] [nifedipine, reference compound]
effect of compound (2) on exposure to the co-administered drug [3]: marked increase

From patent publication US11534428B1, “Compositions and methods for delaying the incidence of labor” (ObsEva S.A., priority 2018, dated 2022)
